Assay results as given in patent publication US8258114B2, “Modulation of glucose-6-phosphatase translocase expression” (Isis Pharmaceuticals, Inc., priority 2004, dated 2012).
Oligonucleotides are written 5' to 3', each unit as a sugar letter and its base; * is a phosphorothioate linkage, no mark a phosphodiester; rarer units and linkages stand in square brackets, end groups in braces. Plain capitals give the bases only. e = 2'-O-(2-methoxyethyl) (MOE); [5mC] = 5-methylcytosine; d = 2'-deoxy (DNA)

System: human glucose-6-phosphatase translocase mRNA
Test: Antisense inhibition of human glucose-6-phosphatase translocase mRNA in T-24 cells, real-time PCR (Table 4)
Type: cell-based
Details: 100 nM oligonucleotide, LIPOFECTIN, mRNA by real-time PCR
Method: The transitional cell bladder carcinoma cell line T-24 was obtained from the American Type Culture Collection (ATCC) (Manassas, Va.). T-24 cells were routinely cultured in complete McCoy's 5A basal media (Invitrogen Life Technologies, Carlsbad, Calif.) supplemented with 10% fetal bovine serum (Invitrogen Life Technologies, Carlsbad, Calif.). Cells were routinely passaged by trypsinization and dilution when they reached approximately 90% confluence. Cells were seeded into 96-well plates (Falcon-Primaria #3872) at a density of approximately 4000-6000 cells/well for use in oligomeric compound transfection experiments. When cells reached 65-75% confluency, they were treated with oligonucleotide. […] This transfection mixture was incubated at room temperature for approximately 0.5 hours. For cells grown in 96-well plates, wells were washed once with 100 μL OPTI-MEMTM-1 and then treated with 130 μL of the transfection mixture. Cells grown in 24-well plates or other standard tissue culture plates are treated similarly, using appropriate volumes of medium and oligonucleotide. Cells are treated and data are obtained in duplicate or triplicate. After approximately 4-7 hours of treatment at 37° C., the medium containing the transfection mixture was replaced with fresh culture medium. Cells were harvested 16-24 hours after oligonucleotide treatment. […] Prior to quantitative PCR analysis, primer-probe sets specific to the target gene being measured were evaluated for their ability to be “multiplexed” with a GAPDH amplification reaction. After isolation the RNA is subjected to sequential reverse transcriptase (RT) reaction and real-time PCR, both of which are performed in the same well. RT and PCR reagents were obtained from Invitrogen Life Technologies (Carlsbad, Calif.). […] The RT reaction was carried out by incubation for 30 minutes at 48° C. Following a 10 minute incubation at 95° C. to activate the PLATINUM® Taq, 40 cycles of a two-step PCR protocol were carried out: 95° C. for 15 seconds (denaturation) followed by 60° C. for 1.5 minutes (annealing/extension). Gene target quantities obtained by RT, real-time PCR were normalized using either the expression level of GAPDH, a gene whose expression is constant, or by quantifying total RNA using RiboGreenTM (Molecular Probes, Inc. Eugene, Oreg.). GAPDH expression was quantified by RT, real-time PCR, by being run simultaneously with the target, multiplexing, or separately. Total RNA was quantified using RiboGreenTM RNA quantification reagent (Molecular Probes, Inc. Eugene, Oreg.). A series of oligomeric compounds was designed to target different regions of human glucose-6-phosphatase translocase, using published sequences cited in Table 1. All compounds in Table 4 are chimeric oligonucleotides (“gapmers”) 20 nucleotides in length, composed of a central “gap” region consisting of 10 2'-deoxynucleotides, which is flanked on both sides ([NT]) by five-nucleotide “wings”. The wings are composed of 2'-O-(2-methoxyethyl) nucleotides, also known as 2'-MOE nucleotides. The internucleoside (backbone) linkages are phosphorothioate throughout the oligonucleotide. All cytidine residues are 5-methylcytidines. The compounds were analyzed for their effect on gene target mRNA levels by quantitative real-time PCR as described in other examples herein, using the following primer-probe set designed to hybridize to human glucose-6-phosphatase translocase: Forward primer: [NT] (incorporated herein as SEQ ID NO: 24) Reverse primer: [NT] (incorporated herein as SEQ ID NO: 25) And the PCR probe was: […] (incorporated herein as SEQ ID NO: 26), where FAM is the fluorescent dye and TAMRA is the quencher dye. Data are from experiments in which T-24 cells were treated with 100 nM of the antisense oligonucleotides of the present invention using LIPOFECTINTM. A reduction in expression is expressed as percent inhibition in Table 4. If present, “N.D.” indicates “not determined”. The control oligomeric compound used was SEQ ID NO: 11. […]

Sequence	% Inhib
AGGGTGCTCTCCTCCTTCAA (eA*eG*eG*eG*eT*dG*d[5mC]*dT*d[5mC]*dT*d[5mC]*d[5mC]*dT*d[5mC]*d[5mC]*eT*eT*e[5mC]*eA*eA; antisense) [ISIS 194855]	57%
CCACCTATATCCAACTGCGC (e[5mC]*e[5mC]*eA*e[5mC]*e[5mC]*dT*dA*dT*dA*dT*d[5mC]*d[5mC]*dA*dA*d[5mC]*eT*eG*e[5mC]*eG*e[5mC]; antisense) [ISIS 194839]	83%
CCAGGCAGGCCCCTCCTTTT (e[5mC]*e[5mC]*eA*eG*eG*d[5mC]*dA*dG*dG*d[5mC]*d[5mC]*d[5mC]*d[5mC]*dT*d[5mC]*e[5mC]*eT*eT*eT*eT; antisense) [ISIS 194858]	71%
CCCACTGACAAACTTGCTGA (e[5mC]*e[5mC]*e[5mC]*eA*e[5mC]*dT*dG*dA*d[5mC]*dA*dA*dA*d[5mC]*dT*dT*eG*e[5mC]*eT*eG*eA; antisense) [ISIS 194850]	88%
CCTGCTTGCCGCTCTCACAG (e[5mC]*e[5mC]*eT*eG*e[5mC]*dT*dT*dG*d[5mC]*d[5mC]*dG*d[5mC]*dT*d[5mC]*dT*e[5mC]*eA*e[5mC]*eA*eG; antisense) [ISIS 194844]	73%
CTGTAGCCCCCAAACATGGC (e[5mC]*eT*eG*eT*eA*dG*d[5mC]*d[5mC]*d[5mC]*d[5mC]*d[5mC]*dA*dA*dA*d[5mC]*eA*eT*eG*eG*e[5mC]; antisense) [ISIS 194835]	59%
CTTGGCAATGGTGCTGAAGG (e[5mC]*eT*eT*eG*eG*d[5mC]*dA*dA*dT*dG*dG*dT*dG*d[5mC]*dT*eG*eA*eA*eG*eG; antisense) [ISIS 194847]	66%
GATAGCCTCACTTCAGGTGG (eG*eA*eT*eA*eG*d[5mC]*d[5mC]*dT*d[5mC]*dA*d[5mC]*dT*dT*d[5mC]*dA*eG*eG*eT*eG*eG; antisense) [ISIS 194836]	58%
GATGAACCCCAAATCATCCT (eG*eA*eT*eG*eA*dA*d[5mC]*d[5mC]*d[5mC]*d[5mC]*dA*dA*dA*dT*d[5mC]*eA*eT*e[5mC]*e[5mC]*eT; antisense) [ISIS 194827]	55%
GCTGACTGTCCTTTCTCCTG (eG*e[5mC]*eT*eG*eA*d[5mC]*dT*dG*dT*d[5mC]*d[5mC]*dT*dT*dT*d[5mC]*eT*e[5mC]*e[5mC]*eT*eG; antisense) [ISIS 194859]	62%
GCTGCGCCAGCTGTAGCTCT (eG*e[5mC]*eT*eG*e[5mC]*dG*d[5mC]*d[5mC]*dA*dG*d[5mC]*dT*dG*dT*dA*eG*e[5mC]*eT*e[5mC]*eT; antisense) [ISIS 194843]	66%
GGACTCTCTTCACTCAGCCT (eG*eG*eA*e[5mC]*eT*d[5mC]*dT*d[5mC]*dT*dT*d[5mC]*dA*d[5mC]*dT*d[5mC]*eA*eG*e[5mC]*e[5mC]*eT; antisense) [ISIS 194825]	73%
GGTGCGGATGTTTCGTAGGA (eG*eG*eT*eG*e[5mC]*dG*dG*dA*dT*dG*dT*dT*dT*d[5mC]*dG*eT*eA*eG*eG*eA; antisense) [ISIS 194826]	76%
GGTTGCCAGGATAGGGCCCA (eG*eG*eT*eT*eG*d[5mC]*d[5mC]*dA*dG*dG*dA*dT*dA*dG*dG*eG*e[5mC]*e[5mC]*e[5mC]*eA; antisense) [ISIS 194846]	70%
GTCAAGGGTCATTAGTGCCC (eG*eT*e[5mC]*eA*eA*dG*dG*dG*dT*d[5mC]*dA*dT*dT*dA*dG*eT*eG*e[5mC]*e[5mC]*e[5mC]; antisense) [ISIS 194854]	80%
TAACCAGTGGAGAGCACCCA (eT*eA*eA*e[5mC]*e[5mC]*dA*dG*dT*dG*dG*dA*dG*dA*dG*d[5mC]*eA*e[5mC]*e[5mC]*e[5mC]*eA; antisense) [ISIS 194833]	60%
TAGTGGTACAGTGAGAATGA (eT*eA*eG*eT*eG*dG*dT*dA*d[5mC]*dA*dG*dT*dG*dA*dG*eA*eA*eT*eG*eA; antisense) [ISIS 194848]	81%
TCCTTGTCCAAAGGGATCTC (eT*e[5mC]*e[5mC]*eT*eT*dG*dT*d[5mC]*d[5mC]*dA*dA*dA*dG*dG*dG*eA*eT*e[5mC]*eT*e[5mC]; antisense) [ISIS 194842]	57%
TCTCTTCCACCAATGATGGC (eT*e[5mC]*eT*e[5mC]*eT*dT*d[5mC]*d[5mC]*dA*d[5mC]*d[5mC]*dA*dA*dT*dG*eA*eT*eG*eG*e[5mC]; antisense) [ISIS 194841]	41%
TGACTGCAGAAGTTTCCTGT (eT*eG*eA*e[5mC]*eT*dG*d[5mC]*dA*dG*dA*dA*dG*dT*dT*dT*e[5mC]*e[5mC]*eT*eG*eT; antisense) [ISIS 194838]	91%
TGACTGTCCTTTCTCCTGGA (eT*eG*eA*e[5mC]*eT*dG*dT*d[5mC]*d[5mC]*dT*dT*dT*d[5mC]*dT*d[5mC]*e[5mC]*eT*eG*eG*eA; antisense) [ISIS 194834]	71%
TGCCTACAAGGCCCCCAACT (eT*eG*e[5mC]*e[5mC]*eT*dA*d[5mC]*dA*dA*dG*dG*d[5mC]*d[5mC]*d[5mC]*d[5mC]*e[5mC]*eA*eA*e[5mC]*eT; antisense) [ISIS 194849]	65%
TGCGCCTAGTGGTACAGTGA (eT*eG*e[5mC]*eG*e[5mC]*d[5mC]*dT*dA*dG*dT*dG*dG*dT*dA*d[5mC]*eA*eG*eT*eG*eA; antisense) [ISIS 194829]	82%
TGTCCTTTCTCCTGGATAAG (eT*eG*eT*e[5mC]*e[5mC]*dT*dT*dT*d[5mC]*dT*d[5mC]*d[5mC]*dT*dG*dG*eA*eT*eA*eA*eG; antisense) [ISIS 194852]	44%
TGTTTCGTAGGAGGAAGAAG (eT*eG*eT*eT*eT*d[5mC]*dG*dT*dA*dG*dG*dA*dG*dG*dA*eA*eG*eA*eA*eG; antisense) [ISIS 194857]	44%
TTCCTGCTTGCCGCTCTCAC (eT*eT*e[5mC]*e[5mC]*eT*dG*d[5mC]*dT*dT*dG*d[5mC]*d[5mC]*dG*d[5mC]*dT*e[5mC]*eT*e[5mC]*eA*e[5mC]; antisense) [ISIS 194845]	50%

System: human glucose-6-phosphatase translocase mRNA
Test: Antisense inhibition of human glucose-6-phosphatase translocase mRNA in HepG2 cells (Table 11)
Type: cell-based
Set-up: concentration or dose not given beside the values
Details: LIPOFECTIN, mRNA by real-time PCR
In short: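 HepG2 cells at 65-75% confluency transfected with 2′-MOE gapmer oligonucleotides using LIPOFECTIN (2.5 or 3 μg/mL per 100 nM oligo) for 4-7 h and harvested 16-24 h later. Target mRNA measured by RT real-time PCR and normalized to GAPDH or RiboGreen total RNA.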

Sequence	% Inhib
AGGGTGCTCTCCTCCTTCAA (eA*eG*eG*eG*eT*dG*d[5mC]*dT*d[5mC]*dT*d[5mC]*d[5mC]*dT*d[5mC]*d[5mC]*eT*eT*e[5mC]*eA*eA; antisense) [ISIS 194855]	66%
CCACCTATATCCAACTGCGC (e[5mC]*e[5mC]*eA*e[5mC]*e[5mC]*dT*dA*dT*dA*dT*d[5mC]*d[5mC]*dA*dA*d[5mC]*eT*eG*e[5mC]*eG*e[5mC]; antisense) [ISIS 194839]	75%
CCCACTGACAAACTTGCTGA (e[5mC]*e[5mC]*e[5mC]*eA*e[5mC]*dT*dG*dA*d[5mC]*dA*dA*dA*d[5mC]*dT*dT*eG*e[5mC]*eT*eG*eA; antisense) [ISIS 194850]	38%
TGACTGCAGAAGTTTCCTGT (eT*eG*eA*e[5mC]*eT*dG*d[5mC]*dA*dG*dA*dA*dG*dT*dT*dT*e[5mC]*e[5mC]*eT*eG*eT; antisense) [ISIS 194838]	42%
